The assay deals with 242566-281-R-J2-PDC complex spheroid viability. Nature of the assay: Anticancer human tumor 242566-281-R-J2-PDC patient-derived pancreatic carcinoma cell line growth inhibition [CLK]. The conditions noted are these: for viability, T/C: stronger effect = lower value. From the text:
A high-throughput screen of multi-cell type tumor spheroids was designed to identify active combinations of […] and targeted small molecules. Complex spheroids include a stromal component modeled by human endothelial cells (HUVEC) and fibroblasts modeled by human mesenchymal stem cells (MSCs). The concentration ranges selected for each drug and investigational agent were based upon clinically achievable concentrations if the clinical Cmax of the agent was known.
Compounds. The drugs and investigational agents: cirtuvivint (SM08502; NSC835563), CC-671 (NSC850746), vemurafenib (NSC761431), tapotoclax (NSC804041), sotorasib (NSC818433), adagrasib (NSC831453), MRTX-1133 (NSC836407), BAY2416964 (NSC825713), copanlisib (NSC816437), inavolisib (NSC800729), abemaciclib (NSC768073), osimertinib (NSC779217), entinostat (NSC756642), eltanexor (KPT-8602, NSC794443), venetoclax (NSC766270), ceralasertib (NSC777638), bortezomib (NSC756655), olaparib (NSC753686), talazoparib (NSC767125), alisertib (NSC759677), peposertib (NSC802822), gemcitabine (NSC613327), 5-fluorouracil (NSC19893), SN-38 (NSC673596), oxaliplatin (NSC266046), paclitaxel (NSC125973), and doxorubicin (NSC123127), were obtained from the National Cancer Institute (NCI) Developmental Therapeutics Program Chemical Repository. The FDA-approved anticancer drug set is available from the Developmental Therapeutics Program at https://dtp.cancer.gov/organization/dscb/obtaining/available plates.htm. […] The stock solutions were prepared in dimethyl sulfoxide (DMSO, Sigma-Aldrich, St. Louis, MO, cat. D2650), except for the platinum complexes which were prepared in saline (Quality Biological, Gaithersburg, MD, cat. 114-055-101), at 800-fold the tested concentration and stored at -70 degrees C prior to their use. All drugs and investigational agents were tested over a range starting from a high concentration at or near the clinical Cmax and decreasing in half-log increments. If the clinical Cmax for an agent had not been determined, the highest concentration tested was 10 microM.
Cell Culture. All cells were maintained in an incubator at 37 degrees C and 5% CO2 with 95% humidity. The PDC lines were cultured according to standard operating procedures established by the NCI PDMR. Briefly, all PDCs were thawed and cultured in Matrigel-coated flasks prepared with a working solution of 1X Ham's F-12 nutrient mix, without supplementation (Invitrogen, Waltham, MA, cat. 11765054), 100 U/mL penicillin-streptomycin (Invitrogen, cat. 15140122), and 2.5% Matrigel (Corning Inc., Corning, NY, cat. 354248) for the first three passages. The 947758-054-R-J2-PDC line was cultured in 6B/Colon 1A media, which includes advanced DMEM/F-12 (Thermo Fisher Scientific, cat. 12634028), 10 mM HEPES (Thermo Fisher Scientific, cat. 15630080), 1X GlutaMAX supplement (Thermo Fisher Scientific, cat. 35050061), 0.1 mg/mL primocin (InvivoGen, cat. ant-pm-2), 10% defined fetal bovine serum, heat inactivated (HyClone Laboratories Inc., cat. SH30070.03HI), 1.25 mM N-Acetyl-L-cysteine (Sigma-Aldrich, cat. A9165), 10 mM nicotinamide (Sigma-Aldrich, cat. N0636), 1X B-27 supplement (Thermo Fisher Scientific, cat. 17504044), 1X N-2 supplement (Thermo Fisher Scientific, cat. 17502048), and 10 microM Y-27632 dihydrochloride (Tocris Bioscience, cat. 1254). The 876862-298-R-J1-PDC was cultured in 6E media, which includes all 6B/Colon 1A media components plus 50% L-WRN conditioned media (ATCC, cat. CRL-3276), 50 ng/mL recombinant human EGF recombinant protein (hEGF; Thermo Fisher Scientific, cat. PHG0311), 10 ng/mL recombinant human fibroblast growth factor 10 (hGFG-10; PeproTech, cat. 100-26), 1 ng/mL recombinant human fibroblast growth factor 2 (hFGF-2; PeproTech, cat. 100-18B), and 1 µM prostaglandin E2 (PGE2; Tocris, cat. 2296). The 227483-062-R1-J1-PDC line was cultured in Panc media, containing all 6E components except hFGF-2, with the addition of 500 nM SB-431542 (Selleckchem, cat. S1067) and 10 nM gastrin (Tocris, cat. 3006). […]

The structures appear in SMILES notation. Several values for one entry are separate records, joined by “and”; a condition that tells them apart may be missing. Identical values can stand only once.

A word on the viability, T/C: it is the result in the treated group divided by that in the control group, in per cent. One may read the IC50 as the concentration that inhibits the measured activity by half.
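Also: spheroids exposed to compounds for 7 days before readout.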
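For viability, T/C in this document: 100% = DMSO vehicle control wells.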

With `CCN1CCN(Cc2ccc(Nc3ncc(F)c(-c4cc(F)c5nc(C)n(C(C)C)c5c4)n3)nc2)CC1`, the viability, T/C reads like this: (compound 0.00316 µM) 102% and 83%; (compound 0.01 µM) 102% and 94.6%; (compound 0.0316 µM) 90.6% and 95.6%; (compound 0.1 µM) 103% and 89%; (compound 0.316 µM) 118% and 100%; (compound 1 µM) 132% and 152%. Also, the IC50 (curve of compound) was above 1 µM.
Consider `COc1c(OCCCN2CCOCC2)ccc2c3n(c(=NC(=O)c4cnc(N)nc4)nc12)CCN3`, for which the viability, T/C reads like this: (compound 0.00316 µM) 86.1% and 72.8%; (compound 0.01 µM) 73.2% and 74.1%; (compound 0.0316 µM) 44.2% and 56.4%; (compound 0.1 µM) 21.8% and 30.8%; (compound 0.316 µM) 12.3% and 19.2%; (compound 1 µM) 6.02% and 16.4%. Moreover, the IC50 (curve of compound) is 0.0258 µM and 0.0432 µM.
In the case of `CC(CO)NC(=O)c1cc(-c2ccc(Cl)cc2)nn(-c2cnn(C)c2)c1=O` (stereo unspecified) + CNC(=O)c1ccc(Nc2nc(OC3CCCC3)c3c(-c4ccc5nc(C)oc5c4)c[nH]c3n2)c(OC)c1, the IC50 runs as follows: (curve of first compound, second compound 0.0316 µM) above 10 µM; (curve of first compound, second compound 0.1 µM) above 10 µM; (curve of first compound, second compound 0.316 µM) above 10 µM; (curve of first compound, second compound 1 µM) above 10 µM; (curve of first compound, second compound 3.16 µM) above 10 µM; (curve of first compound, second compound 10 µM) above 10 µM. Further, the viability, T/C is 112% (second compound 0.0316 µM, first compound 0.0316 µM); 105% (second compound 0.0316 µM, first compound 0.1 µM); 103% (second compound 0.0316 µM, first compound 0.316 µM); 124% (second compound 0.0316 µM, first compound 1 µM); 110% (second compound 0.0316 µM, first compound 3.16 µM); 104% (second compound 0.0316 µM, first compound 10 µM). For the same compound, the viability, T/C was 105% (second compound 0.1 µM, first compound 0.0316 µM); 107% (second compound 0.1 µM, first compound 0.1 µM); 93% (second compound 0.1 µM, first compound 0.316 µM); 102% (second compound 0.1 µM, first compound 1 µM); 103% (second compound 0.1 µM, first compound 3.16 µM); 96.3% (second compound 0.1 µM, first compound 10 µM). For the same compound, the viability, T/C is, setting by setting: (second compound 0.316 µM, first compound 0.0316 µM) 96.1%; (second compound 0.316 µM, first compound 0.1 µM) 90.7%; (second compound 0.316 µM, first compound 0.316 µM) 83.1%; (second compound 0.316 µM, first compound 1 µM) 95.9%; (second compound 0.316 µM, first compound 3.16 µM) 101%; (second compound 0.316 µM, first compound 10 µM) 86%. Further, the viability, T/C by setting is: (second compound 1 µM, first compound 0.0316 µM) 76%; (second compound 1 µM, first compound 0.1 µM) 65%; (second compound 1 µM, first compound 0.316 µM) 75.6%; (second compound 1 µM, first compound 1 µM) 79.2%; (second compound 1 µM, first compound 3.16 µM) 86.2%; (second compound 1 µM, first compound 10 µM) 89.4%. For the same compound, the viability, T/C runs as follows: (second compound 3.16 µM, first compound 0.0316 µM) 60.1%; (second compound 3.16 µM, first compound 0.1 µM) 62.5%; (second compound 3.16 µM, first compound 0.316 µM) 59.1%; (second compound 3.16 µM, first compound 1 µM) 58.9%; (second compound 3.16 µM, first compound 3.16 µM) 63%; (second compound 3.16 µM, first compound 10 µM) 69.2%. Besides, the viability, T/C is 55.6% (second compound 10 µM, first compound 0.0316 µM); 55.8% (second compound 10 µM, first compound 0.1 µM); 54.1% (second compound 10 µM, first compound 0.316 µM); 58.8% (second compound 10 µM, first compound 1 µM); 62.7% (second compound 10 µM, first compound 3.16 µM); 70.2% (second compound 10 µM, first compound 10 µM).
In the case of `O=C(c1cc(Cc2n[nH]c(=O)c3ccccc23)ccc1F)N1CCN(C(=O)C2CC2)CC1`, the viability, T/C (compound 0.0316 µM) was 107% and 93.5%; the viability, T/C (compound 0.1 µM) is 97.4% and 85.4%; the viability, T/C (compound 0.316 µM) was 96.3% and 82.3%; the viability, T/C (compound 1 µM) is 102% and 94.1%; the viability, T/C (compound 3.16 µM) is 87.1% and 111%; the viability, T/C (compound 10 µM) was 72.5% and 75.4%. For the same compound, under “curve of compound”, the IC50 was above 10 µM.
Turning to `CNC(=O)c1ccc(Nc2nc(OC3CCCC3)c3c(-c4ccc5nc(C)oc5c4)c[nH]c3n2)c(OC)c1`, the viability, T/C (compound 1 µM) was 69.1% [middle of 12 runs]; the viability, T/C (compound 3.16 µM) is 61% [middle of 12 runs]; the viability, T/C (compound 10 µM) was 55.9% [middle of 12 runs]. Also, the IC50 (compound alone, run of 08/01/2023) is > 10 µM and 2.63 µM.
Consider `COc1ccc([C@@H](O)c2cc(-c3ncnc4cc(N5CCOCC5)ccc34)c(F)cc2Cl)nn1`, for which the viability, T/C is 112% and 89.3% (compound 0.0316 µM); 111% and 92.2% (compound 0.1 µM); 96.7% and 104% (compound 0.316 µM); 83.7% and 91.3% (compound 1 µM); 77.1% and 92.4% (compound 3.16 µM); 48.2% and 71.3% (compound 10 µM). Where the note is “curve of compound”, the IC50 was above 10 µM.
Regarding `CC1COCCN1c1cc(C2(S(C)(=N)=O)CC2)nc(-c2ccnc3[nH]ccc23)n1` (stereo unspecified), the viability, T/C was 108% and 90.3% (compound 0.0316 µM); 104% and 84.2% (compound 0.1 µM); 106% and 81% (compound 0.316 µM); 108% and 90.7% (compound 1 µM); 75.2% and 90.5% (compound 3.16 µM); 37.9% and 60.6% (compound 10 µM). Further, the IC50 (curve of compound) is 6.89 µM and > 10 µM.

The values are drawn from PubChem BioAssay AID2060622 (Molecular Pharmacology Branch, DTP, NCI, 2025).
